In PubChem BioAssay AID180 (DTP/NCI, 2004):
Several values for one entry are separate records, joined by “and”; a condition that tells them apart may be missing. Equal entries are not always repeated.

System: BDF1 mice, Adenocarcinoma 755 s.c., tumor weight T/C
Assay: NCI In Vivo Anticancer Drug Screen. Data for tumor model Adenocarcinoma 755 (subcutaneous) in B6D2F1 (BDF1) mice
Conditions: endpoint: mean tumor weight, higher = larger tumour
In short: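 In vivo antitumor screen on a transplantable tumor line. Result equals the measure in compound-treated animals divided by the same measure in vehicle controls.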

[1] = dose: 30.0 mg/kg/injection, schedule: Q01DX011 (ip), vehicle: saline
[2] = dose: 50.0 mg/kg/injection, schedule: Q01DX011 (ip), vehicle: carboxymethylcellulose (CMC)
[3] = dose: 31.0 mg/kg/injection, schedule: Q01DX011 (ip), vehicle: methylcellulose (MC)
[4] = dose: 250.0 mg/kg/injection, schedule: Q01DX011 (ip), vehicle: methylcellulose (MC)

c1nc(SC2=NCCN2)c2[nH]cnc2n1
T/C (dose: 0.22 mg/kg/injection, schedule: Q01DX011 (ip), vehicle: saline): 104 % of control
T/C (dose: 0.45 mg/kg/injection, schedule: Q01DX011 (ip), vehicle: saline): 72 % of control
T/C (dose: 0.45 mg/kg/injection, schedule: Q01DX011 (oral), vehicle: saline): 100 % of control
T/C (dose: 0.65 mg/kg/injection, schedule: Q01DX011 (ip), vehicle: saline): 71 % of control
T/C (dose: 0.9 mg/kg/injection, schedule: Q01DX011 (ip), vehicle: saline): 61 % of control
T/C (dose: 0.9 mg/kg/injection, schedule: Q01DX011 (oral), vehicle: saline): 73 % of control
T/C (dose: 1.3 mg/kg/injection, schedule: Q01DX011 (ip), vehicle: saline): 74 % of control
T/C (dose: 1.8 mg/kg/injection, schedule: Q01DX011 (ip), vehicle: saline): 15 % of control
T/C (dose: 1.8 mg/kg/injection, schedule: Q01DX011 (oral), vehicle: saline): 48 % of control
T/C (dose: 2.6 mg/kg/injection, schedule: Q01DX011 (ip), vehicle: saline): 23 % of control
T/C (dose: 2.62 mg/kg/injection, schedule: Q01DX011 (ip), vehicle: saline): 4 % of control and 8 % of control
T/C (dose: 3.6 mg/kg/injection, schedule: Q01DX011 (oral), vehicle: saline): 21 % of control
T/C (dose: 5.25 mg/kg/injection, schedule: Q01DX011 (ip), vehicle: saline): 2 % of control and 3 % of control
T/C (dose: 5.25 mg/kg/injection, schedule: Q01DX011 (oral), vehicle: saline): 9 % of control
T/C (dose: 8.0 mg/kg/injection, schedule: Q01DX001 (ip), vehicle: saline): 38 % of control
T/C (dose: 10.5 mg/kg/injection, schedule: Q01DX011 (ip), vehicle: saline): 1 % of control and 2 % of control
T/C (dose: 10.5 mg/kg/injection, schedule: Q01DX011 (oral), vehicle: saline): 2 % of control
T/C (dose: 16.0 mg/kg/injection, schedule: Q01DX001 (ip), vehicle: saline): 57 % of control
T/C (dose: 20.0 mg/kg/injection, schedule: Q01DX011 (ip), vehicle: saline): 31 % of control
T/C (dose: 21.0 mg/kg/injection, schedule: Q01DX011 (ip), vehicle: saline): 2 % of control
T/C (dose: 21.0 mg/kg/injection, schedule: Q01DX011 (oral), vehicle: saline): 1 % of control
T/C [1]: 14 % of control
T/C (dose: 31.0 mg/kg/injection, schedule: Q01DX001 (ip), vehicle: saline): 29 % of control
T/C (dose: 62.0 mg/kg/injection, schedule: Q01DX001 (ip), vehicle: saline): 38 % of control

Cn1c(=O)c2c(nc(N/N=C/C(Cl)Cl)n2C)n(C)c1=O
T/C (dose: 2.8 mg/kg/injection, schedule: Q01DX011 (ip), vehicle: methylcellulose (MC)): 79 % of control
T/C (dose: 8.3 mg/kg/injection, schedule: Q01DX011 (ip), vehicle: methylcellulose (MC)): 71 % of control

Cn1c(N)nc2nc[nH]c2c1=O
T/C (dose: 9.3 mg/kg/injection, schedule: Q01DX011 (ip), vehicle: methylcellulose (MC)): 79 % of control
T/C (dose: 18.7 mg/kg/injection, schedule: Q01DX011 (ip), vehicle: methylcellulose (MC)): 68 % of control
T/C (dose: 37.5 mg/kg/injection, schedule: Q01DX011 (ip), vehicle: methylcellulose (MC)): 29 % of control

Nc1nc(SCc2ccncc2)c2[nH]cnc2n1
T/C (dose: 1.25 mg/kg/injection, schedule: Q01DX011 (ip), vehicle: methylcellulose (MC)): 71 % of control
T/C (dose: 2.5 mg/kg/injection, schedule: Q01DX011 (ip), vehicle: methylcellulose (MC)): 41 % of control
T/C (dose: 5.0 mg/kg/injection, schedule: Q01DX011 (ip), vehicle: methylcellulose (MC)): 31 % of control
T/C (dose: 10.0 mg/kg/injection, schedule: Q01DX011 (ip), vehicle: methylcellulose (MC)): 9 % of control and 12 % of control
T/C (dose: 20.0 mg/kg/injection, schedule: Q01DX011 (ip), vehicle: methylcellulose (MC)): 3 % of control

NC(=O)N(CCCl)N=O
T/C (dose: 0.23 mg/kg/injection, schedule: Q01DX011 (ip), vehicle: methylcellulose (MC)): 54 % of control and 59 % of control
T/C (dose: 0.9 mg/kg/injection, schedule: Q01DX011 (ip), vehicle: methylcellulose (MC)): 34 % of control and 38 % of control
T/C (dose: 1.8 mg/kg/injection, schedule: Q01DX011 (ip), vehicle: methylcellulose (MC)): 27 % of control

O=[N+]([O-])c1ccc(C=Nc2ccc3c(c2)C(Br)c2ccccc2-3)cc1 (stereo not drawn)
T/C (dose: 28.0 mg/kg/injection, schedule: Q01DX011 (ip), vehicle: saline): 113 % of control
T/C (dose: 55.0 mg/kg/injection, schedule: Q01DX011 (ip), vehicle: saline): 96 % of control
T/C (dose: 110.0 mg/kg/injection, schedule: Q01DX011 (ip), vehicle: saline): 73 % of control
T/C (dose: 220.0 mg/kg/injection, schedule: Q01DX011 (ip), vehicle: saline): 40 % of control and 44 % of control
T/C (dose: 440.0 mg/kg/injection, schedule: Q01DX011 (ip), vehicle: saline): 39 % of control

Nc1ncnc2c1ccn2C1OC(CO)C(O)C1O (stereo not drawn)
T/C (dose: 0.5 mg/kg/injection, schedule: Q01DX011 (ip), vehicle: carboxymethylcellulose (CMC)): 68 % of control
T/C (dose: 1.0 mg/kg/injection, schedule: Q01DX011 (ip), vehicle: carboxymethylcellulose (CMC)): 76 % of control

O=C(O)CCC(=O)CCl
T/C (dose: 34.0 mg/kg/injection, schedule: Q01DX011 (ip), vehicle: methylcellulose (MC)): 46 % of control

O[C@H](CN1CC1)[C@@H](O)CN1CC1
T/C (dose: 0.19 mg/kg/injection, schedule: Q01DX011 (ip), vehicle: methylcellulose (MC)): 50 % of control
T/C (dose: 0.38 mg/kg/injection, schedule: Q01DX011 (ip), vehicle: methylcellulose (MC)): 47 % of control
T/C (dose: 0.75 mg/kg/injection, schedule: Q01DX011 (ip), vehicle: methylcellulose (MC)): 13 % of control
T/C (dose: 1.5 mg/kg/injection, schedule: Q01DX011 (ip), vehicle: methylcellulose (MC)): 8 % of control

CC1CCC(n2cnc3c(N)ncnc32)O1 (stereo not drawn)
T/C [1]: 108 % of control
T/C (dose: 60.0 mg/kg/injection, schedule: Q01DX011 (ip), vehicle: saline): 119 % of control
T/C (dose: 120.0 mg/kg/injection, schedule: Q01DX011 (ip), vehicle: saline): 66 % of control
T/C (dose: 240.0 mg/kg/injection, schedule: Q01DX011 (ip), vehicle: saline): 25 % of control

COc1ccc2c(c1)CCC(c1ccccc1)=C2c1ccc(OCCN2CCCC2)cc1
T/C (dose: 3.0 mg/kg/injection, schedule: Q01DX011 (sc), vehicle: steriod suspending solution): 86 % of control
T/C (dose: 6.0 mg/kg/injection, schedule: Q01DX011 (sc), vehicle: steriod suspending solution): 82 % of control
T/C (dose: 12.0 mg/kg/injection, schedule: Q01DX011 (sc), vehicle: steriod suspending solution): 34 % of control
T/C (dose: 25.0 mg/kg/injection, schedule: Q01DX011 (sc), vehicle: steriod suspending solution): 26 % of control

O=S(=O)(NCc1ccccn1)c1ncnc2nc[nH]c12
T/C (dose: 12.0 mg/kg/injection, schedule: Q01DX011 (ip), vehicle: carboxymethylcellulose (CMC)): 119 % of control
T/C (dose: 25.0 mg/kg/injection, schedule: Q01DX011 (ip), vehicle: carboxymethylcellulose (CMC)): 101 % of control
T/C [2]: 99 % of control

N/C(=N\O)c1nsnc1N
T/C [2]: 85 % of control
T/C (dose: 100.0 mg/kg/injection, schedule: Q01DX011 (ip), vehicle: carboxymethylcellulose (CMC)): 71 % of control

Cc1cnc(SCc2ccc(Cl)cc2)nc1Nc1ccc(Cl)cc1Cl
T/C [3]: 97 % of control
T/C (dose: 62.0 mg/kg/injection, schedule: Q01DX011 (ip), vehicle: methylcellulose (MC)): 69 % of control
T/C (dose: 125.0 mg/kg/injection, schedule: Q01DX011 (ip), vehicle: methylcellulose (MC)): 65 % of control
T/C [4]: 65 % of control

C[N+](C)(C)C(C(=O)c1ccccc1)c1ccccc1 (stereo not drawn)
T/C (dose: 10.0 mg/kg/injection, schedule: Q01DX011 (ip), vehicle: carboxymethylcellulose (CMC)): 124 % of control

CSc1ncc(Br)c(Nc2ccccc2Cl)n1
T/C (dose: 15.0 mg/kg/injection, schedule: Q01DX011 (ip), vehicle: methylcellulose (MC)): 110 % of control
T/C [3]: 104 % of control
T/C [4]: 155 % of control

C=CCSc1nc(N)nc2nc[nH]c12
T/C (dose: 2.0 mg/kg/injection, schedule: Q01DX011 (ip), vehicle: methylcellulose (MC)): 50 % of control
T/C (dose: 4.0 mg/kg/injection, schedule: Q01DX011 (ip), vehicle: methylcellulose (MC)): 41 % of control
T/C (dose: 16.0 mg/kg/injection, schedule: Q01DX011 (ip), vehicle: methylcellulose (MC)): 3 % of control

CSc1nc(Cl)cc2nc(Cl)cn12
T/C (dose: 30.0 mg/kg/injection, schedule: Q01DX011 (ip), vehicle: carboxymethylcellulose (CMC)): 110 % of control
T/C (dose: 60.0 mg/kg/injection, schedule: Q01DX011 (ip), vehicle: carboxymethylcellulose (CMC)): 111 % of control

CNC(=O)Cc1ccccc1
T/C (dose: 125.0 mg/kg/injection, schedule: Q01DX011 (ip), vehicle: water): 70 % of control
T/C (dose: 250.0 mg/kg/injection, schedule: Q01DX011 (ip), vehicle: water): 63 % of control
T/C (dose: 500.0 mg/kg/injection, schedule: Q01DX011 (ip), vehicle: water): 30 % of control
